Measurements as given in US20070134319A1, “Pharmaceutical formulations of bisphosphonates” (priority 2003, published 2007).

From the text: The solubility of zoledronic acid in [sequence] 44/14 and [sequence]

O=P(O)(O)C(O)(Cn1ccnc1)P(=O)(O)O [zoledronic acid, 1-hydroxy-2-(imidazol-1-yl)ethane-1,1-diphosphonic acid]
Zoledronic acid solubility in all the excipients (liquid lipidic media) (assessed visually): < 0.2 mg/g of excipient | Solubility of zoledronic acid in VITAMIN E-TPGS (at 40° C.): less than 0.22 mg/g | Solubility of zoledronic acid in GELUCIRE 50/13 (at 60° C.): less than 1 mg/g | Solubility in pH 4.5 acetate buffer (pH 4.5): readily soluble | Precipitation upon addition of flush (pH 4.5 acetate buffer solution, tap water (final pH 3.8) or citric acid (final pH~2.2) flush): does not precipitate out
